These molecules were tested against human activated kallikrein enzyme (Homo sapiens, UniProt P03952) (assay: Plasma kallikrein inhibition, fluorogenic PFR-AMC substrate, 500 pM activated kallikrein format). Details: 500 pM activated kallikrein, 300 uM PFR-AMC, 30 min preincubation, 10 min reaction; read-out: Primary Dose Response Assay: Average EC50.
Type: biochemical
In short: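 High-enzyme format of the fluorogenic peptide assay, with EC50 taken from AMC signal: 500 pM activated kallikrein, 300 uM Pro-Phe-Arg-AMC, 30 min compound preincubation and 10 min reaction, all at room temperature, pH 7.5.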

Sequence of human activated kallikrein enzyme (P03952 391-638 limits assumed): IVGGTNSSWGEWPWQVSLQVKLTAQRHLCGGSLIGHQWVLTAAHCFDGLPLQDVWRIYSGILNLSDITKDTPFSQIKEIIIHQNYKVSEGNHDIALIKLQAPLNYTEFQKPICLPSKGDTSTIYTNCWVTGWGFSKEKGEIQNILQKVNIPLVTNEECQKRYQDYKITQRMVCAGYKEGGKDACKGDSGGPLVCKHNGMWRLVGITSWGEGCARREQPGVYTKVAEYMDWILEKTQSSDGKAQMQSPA
Sequence of human activated kallikrein enzyme (P03952 20-390 partner limits assumed): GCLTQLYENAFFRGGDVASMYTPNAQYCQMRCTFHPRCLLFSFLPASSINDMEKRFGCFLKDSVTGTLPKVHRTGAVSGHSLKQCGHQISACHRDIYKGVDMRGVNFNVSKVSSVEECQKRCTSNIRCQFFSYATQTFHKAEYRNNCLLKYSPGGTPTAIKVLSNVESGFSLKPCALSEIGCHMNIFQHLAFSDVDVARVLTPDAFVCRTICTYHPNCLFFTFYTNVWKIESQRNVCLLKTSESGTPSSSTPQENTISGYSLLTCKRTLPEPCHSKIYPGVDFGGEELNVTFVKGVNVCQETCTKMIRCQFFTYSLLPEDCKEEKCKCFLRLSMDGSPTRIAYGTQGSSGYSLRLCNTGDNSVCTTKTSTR

SMILES | EC50
N#Cc1ccc(Cl)cc1C1CC1C(=O)Nc1cc(NCc2cn3cc(C4CC4)cc(N4CCCC4=O)c3n2)ncn1 (stereo not drawn) [Example 335] | 100 to 1000 nM
N#Cc1ccc(Cl)cc1[C@H]1C[C@@H]1C(=O)Nc1cc(NCc2cn3cc(C4CC4)ccc3n2)ncn1 (racemic) [Example 48, rac-(1S*,2S*)-2-(5-chloro-2-cyanophenyl)-N-(6-(((6-cyclopropylimidazo[1,2-a]pyridin-2-yl)methyl)amino)pyrimidin-4-yl)cyclopropane-1-carboxamide] | 1 to 10 nM
CN1C(=O)CN(c2cc(C3CC3)cn3cc(CNc4cc(NC(=O)C5CC5(F)c5cccc(Cl)c5)ncn4)nc23)C1=O (racemic) [Example 329, rac-2-(3-chlorophenyl)-N-(6-(((6-cyclopropyl-8-(3-methyl-2,4-dioxoimidazolidin-1-yl)imidazo[1,2-a]pyridin-2-yl)methyl)amino)pyrimidin-4-yl)-2-fluorocyclopropane-1-carboxamide] | 1 to 10 nM
COc1cc(NCc2cn3cc(C4CC4)ccc3n2)cc(NC(=O)[C@H]2C[C@@H]2c2cc(Cl)ccn2)n1 [Example 339, (1S,2S)-2-(4-chloropyridin-2-yl)-N-(4-(((6-cyclopropylimidazo[1,2-a]pyridin-2-yl)methyl)amino)-6-methoxypyridin-2-yl)cyclopropane-1-carboxamide] | 1 to 10 nM
O=C(Nc1cc(NCc2cn3cc(C4CC4)ccc3n2)ncn1)[C@H]1C[C@@H]1c1cc(Cl)ccc1OC(F)F (racemic) [Example 311, rac-(1S*,2S*)-2-(5-chloro-2-(difluoromethoxy)phenyl)-N-(6-(((6-cyclopropylimidazo[1,2-a]pyridin-2-yl)methyl)amino)pyrimidin-4-yl)cyclopropane-1-carboxamide] | 10 to 100 nM
Cc1cc(N2CC(=O)N(C)C2=O)c2nc(C(C)Oc3cnnc(NC(=O)[C@H]4C[C@@H]4c4nccc(C)n4)c3)cn2c1 (stereo partly drawn) [Example 36, (1S,2S)-N-(5-(1-(6-methyl-8-(3-methyl-2,4-dioxoimidazolidin-1-yl)imidazo[1,2-α]pyridin-2-yl)ethoxy)pyridazin-3-yl)-2-(4-methylpyrimidin-2-yl)cyclopropane-1-carboxamide] | < 1 nM
O=C(O)c1cc(C2CC2)cn2cc(CNc3cc(NC(=O)[C@H]4C[C@@H]4c4cccc(Cl)c4)ncn3)nc12 [Example 298, 2-(((6-((1S,2S)-2-(3-chlorophenyl)cyclopropane-1-carboxamido)pyrimidin-4-yl)amino)methyl)-6-cyclopropylimidazo[1,2-a]pyridine-8-carboxylic acid] | 1 to 10 nM
O=C(O)CCc1cc(C2CC2)cn2cc(CNc3cc(NC(=O)[C@H]4C[C@@H]4c4cccc(Cl)c4)ncn3)nc12 (racemic) [Example 72, rac-3-(2-(((6-((1S*,2S*)-2-(3-chlorophenyl)cyclopropane-1-carboxamido)pyrimidin-4-yl)amino)methyl)-6-cyclopropylimidazo[1,2-a]pyridin-8-yl)propanoic acid] | 1 to 10 nM

Continued, values first:

EC50 | SMILES
10 to 100 nM | Cc1ccnc([C@H]2C[C@@H]2C(=O)Nc2cc(N[C@@H](C)c3cn4cc(C5CC5)cc(N5CC(=O)N(C)C5=O)c4n3)nc(C)n2)n1 [Example 455, (1S,2S)—N-(6S-((1-(6-cyclopropyl-8-(3-methyl-2,4-dioxoimidazolidin-1-yl)imidazo[1,2-a]pyridin-2-yl)ethyl)amino)-2-methylpyrimidin-4-yl)-2-(4-methylpyrimidin-2-yl)cyclopropane-1-carboxamide]
> 6000 nM | O=C(Nc1cc(NCc2cn3cc(C4CC4)ccc3n2)ncn1)[C@H]1C[C@@H]1c1cccc(C2CC2)c1 (racemic) [Example 351, rac-(1S*,2S*)—N-(6-(((6-cyclopropylimidazo[1,2-a]pyridin-2-yl)methyl)amino)pyrimidin-4-yl)-2-(3-cyclopropylphenyl)cyclopropane-1-carboxamide]
< 1 nM | Cc1ccnc([C@H]2C[C@@H]2C(=O)Nc2cc3c(cn2)nnn3Cc2cn3cc(C4CC4)cc(N4CC(=O)N(C)C4=O)c3n2)n1 [Example I-635, (1S,2S)—N-(1-((6-cyclopropyl-8-(3-methyl-2,4-dioxoimidazolidin-1-yl)imidazo[1,2-a]pyridin-2-yl)methyl)-1H-[1,2,3]triazolo[4,5-c]pyridin-6-yl)-2-(4-methylpyrimidin-2-yl)cyclopropane-1-carboxamide]
1 to 10 nM | CC(=O)N1CCN(c2cc(C3CC3)cn3cc(CNc4cc(NC(=O)[C@H]5C[C@@H]5c5cccc(Cl)c5)ncn4)nc23)CC1 [Example I-1, (1S,2S)—N-(6-(((8-(4-acetylpiperazin-1-yl)-6-cyclopropylimidazo[1,2-a]pyridin-2-yl)methyl)amino)pyrimidin-4-yl)-2-(3-chlorophenyl)cyclopropane-1-carboxamide]
10 to 100 nM | O=C(Nc1cc(NCc2cn3cc(C4CC4)ccc3n2)ncn1)[C@H]1C[C@@H]1c1cc(Cl)cs1 (racemic) [Example I-186, rac-(1S*,2S*)-2-(4-chlorothiophen-2-yl)-N-(6-(((6-cyclopropylimidazo[1,2-a]pyridin-2-yl)methyl)amino)pyrimidin-4-yl)cyclopropane-1-carboxamide]
1 to 10 nM | C#Cc1cccc([C@H]2C[C@@H]2C(=O)Nc2cc(N3C[C@@H](O)C[C@@H]3c3cn4cc(C5CC5)ccc4n3)ncn2)c1 [Example 486, (1S,2S)-N-(6-((2R,4S)-2-(6-cyclopropylimidazo[1,2-a]pyridin-2-yl)-4-hydroxypyrrolidin-1-yl)pyrimidin-4-yl)-2-(3-ethynylphenyl)cyclopropane-1-carboxamide]
1 to 10 nM | O=C(Nc1nccc2cn(Cc3cn4cc(C5CC5)ccc4n3)nc12)[C@H]1C[C@@H]1c1cccc(Cl)c1 (racemic) [Example 592, rac-(1S*,2S*)-2-(3-chlorophenyl)-N-(2-((6-cyclopropylimidazo[1,2-a]pyridin-2-yl)methyl)-2H-pyrazolo[3,4-c]pyridin-7-yl)cyclopropane-1-carboxamide]
< 1 nM | Cc1ccnc([C@H]2C[C@@H]2C(=O)Nc2ncnc3nn(Cc4cn5cc(C6CC6)cc(N6CC(=O)N(C)C6=O)c5n4)cc23)n1 (single isomer, unassigned) [Example I-634, rac-(1S*,2S*)—N-(2-((6-cyclopropyl-8-(3-methyl-2,4-dioxoimidazolidin-1-yl)imidazo[1,2-a]pyridin-2-yl)methyl)-2H-pyrazolo[3,4-d]pyrimidin-4-yl)-2-(4-methylpyrimidin-2-yl)cyclopropane-1-carboxamide]
1 to 10 nM | Cc1ccnc([C@H]2C[C@@H]2C(=O)Nc2cc(NCc3cn4cc(C5CC5)cc(N5CC(=O)N(C)C5=O)c4n3)c(F)cc2F)n1 [Example 659, (1S,2S)—N-(5-(((6-cyclopropyl-8-(3-methyl-2,4-dioxoimidazolidin-1-yl)imidazo[1,2-a]pyridin-2-yl)methyl)amino)-2,4-difluorophenyl)-2-(4-methylpyrimidin-2-yl)cyclopropane-1-carboxamide]
> 6000 nM | CO[C@H]1C[C@H](c2cn3cc(C4CC4)ccc3n2)N(c2cc(NC(=O)[C@H]3C[C@@H]3c3cccc(Cl)c3)ncn2)C1 [Example 616, (1S,2S)-2-(3-chlorophenyl)-N-(6-((2R,4S)-2-(6-cyclopropylimidazo[1,2-a]pyridin-2-yl)-4-methoxypyrrolidin-1-yl)pyrimidin-4-yl)cyclopropane-1-carboxamide]
> 6000 nM | O=C(Nc1cc(NCc2cn3cc(C4CC4)ccc3n2)ncn1)[C@H]1C[C@@H]1c1n[nH]c2ccc(Cl)cc12 (racemic) [Example I-191, rac-(1S*,2S*)-2-(5-chloro-1H-indazol-3-yl)-N-(6-(((6-cyclopropylimidazo[1,2-a]pyridin-2-yl)methyl)amino)pyrimidin-4-yl)cyclopropane-1-carboxamide]
10 to 100 nM | O=C(Nc1cc(NCc2cn3cc(C4CC4)ccc3n2)ncn1)[C@@]1(F)C[C@@H]1c1cccc(Cl)c1 (racemic) [Example I-184, rac-(1S*,2S*)-2-(3-chlorophenyl)-N-(6-(((6-cyclopropylimidazo[1,2-a]pyridin-2-yl)methyl)amino)pyrimidin-4-yl)-1-fluorocyclopropane-1-carboxamide]
100 to 1000 nM | O=C(Nc1cc(NCc2cn3cc(C4CC4)ccc3n2)ncn1)[C@H]1C[C@@H]1c1cc(Cl)cnn1 (racemic) [Example I-178, rac-(1S*,2S*)-2-(5-chloropyridazin-3-yl)-N-(6-(((6-cyclopropylimidazo[1,2-a]pyridin-2-yl)methyl)amino)pyrimidin-4-yl)cyclopropane-1-carboxamide]
1000 to 6000 nM | O=C(Nc1cc(N2CC[C@@H](O)[C@@H]2c2cn3cc(C4CC4)ccc3n2)ncn1)[C@H]1C[C@@H]1c1cccc(Cl)c1 [Example 485, (1S,2S)-2-(3-chlorophenyl)-N-(6-((2S,3R)-2-(6-cyclopropylimidazo[1,2-a]pyridin-2-yl)-3-hydroxypyrrolidin-1-yl)pyrimidin-4-yl)cyclopropane-1-carboxamide]
> 6000 nM | C[C@H]1[C@H](C(=O)Nc2cc(NCc3cn4cc(C5CC5)ccc4n3)ncn2)[C@H]1c1cccc(Cl)c1 (single isomer, unassigned) [Example 507, (1R*,2R*,3S*)-2-(3-chlorophenyl)-N-(6-(((6-cyclopropylimidazo[1,2-a]pyridin-2-yl)methyl)amino)pyrimidin-4-yl)-3-methylcyclopropane-1-carboxamide]
< 1 nM | Cc1ccnc([C@H]2C[C@@H]2C(=O)Nc2ncc3c(n2)N(Cc2cn4cc(C5CC5)cc(N5CC(=O)N(C)C5=O)c4n2)CCO3)n1 [Example 631]

Same assay, conditions: comparative compounds, 500 pM activated kallikrein format; read-out: Primary Dose Response Assay: Average EC50

EC50 | SMILES
1000 to 6000 nM | O=C(Nc1cc(NCc2cn3cc(C4CC4)ccc3n2)ncn1)NC1CC1c1cccc(Cl)c1 (stereo not drawn)
1000 to 6000 nM | O=C(NCc1cccc(Cl)c1)c1cnn(Cc2cn3cc(C4CC4)ccc3n2)c1
1000 to 6000 nM | O=C(N[C@H]1C[C@@H]1c1cccc(Cl)c1)c1cc(NCc2cn3cc(C4CC4)ccc3n2)ncn1
